Measured values published in PMC3115046, “Analyzing Airway Inflammation with Chemical Biology: Dissection of Acidic Mammalian Chitinase Function with a Selective Drug-like Inhibitor” (Chemistry & Biology, 2011).
Values joined by “and” are separate entries in the source; they are usually repeats but may differ in a detail not shown here. Equal values may be shown once. Read-outs that look alike come from different tables or passages of the source.

Assays:
recombinant mAMCase = biological target: T1, recombinant mAMCase (Mus musculus, UniProt Q91XA9); experiment: Recombinant mAMCase (COS-7 cell-free supernatant) chitinase activity assay; type: biochemical; details: 10 min at 37°C, read-out: IC50 against recombinant mAMCase
T1 construct: The full-length-coding region of mAMCase was amplified using a lung cDNA template; V5/His; made in house; cell-free, serum-free supernatant used as enzyme source
Procedure: Chitinase activity was determined using a fluorescent 4-methylumbelliferyl (4-MU) substrate. […] Chitinase activity is measured relative to the amount of substrate hydrolysed/hr/mL sample.
The full-length-coding region of mAMCase was amplified using a lung cDNA template. The cDNA fragment was directionally cloned into pcDNA3.1 (Invitrogen), to generate a V5/His tagged plasmid. TOP10 competent cells were transformed with the AMCase plasmid and sequence confirmed. Mammalian COS-7 cells were transfected with AMCase-pcDNA3.1 plasmid using Lipofectamine 2000 (Invitrogen). COS-7 cell supernatants were screened for AMCase protein by western blot and chitinase activity. A stable AMCase-expressing cell line was generated using G418 selection medium (RPMI).
Chitinase activity of hAMCase, lung homogenates, or AMCase COS-7 cell supernatants (serum-free) were determined using 4-methylumbelliferyl-β-D-N,N′,N″-triacetylchitotrioside and 4-methylumbelliferyl-β-D-N,N′,N″-triacetylchitobioside, as described. Samples were incubated with substrate (0.022 mM in 100 mM citric acid, 200 mM sodium phosphate buffer [pH 5.2]) in a final volume of 50 μL. […] Liberated 4-methlyumberlliferone was quantified using a microplate fluorometer (excitation 360 nm/emission 440 nm). Ki and IC50 values were determined in the presence of different concentrations of inhibitor. Experiments were performed in duplicate or triplicate.

[1] = system: inflammatory cell recruitment in bronchoalveolar lavage; experiment: Bronchoalveolar lavage cell counts, OVA allergic inflammation model; type: in vivo, BALB/c mice
Procedure: All experiments used female BALB/c mice, 6- to 8-weeks-old. Mice were kept in individually ventilated cages and all experiments were conducted under UK Home Office guidelines. Mice were sensitized (day 0) and boosted (day 14) i.p. with 20 μg OVA (Grade V, Sigma) adsorbed to 9% potassium alum. Mice were either challenged on day 28 and 30 with 50 μg OVA or PBS by the intratracheal route or were challenged with 1% OVA or PBS by aerosol for 30 min on day 28 to day 30. […] Necropsies were performed 24 hr after the final airway challenge. […] Total cell numbers were counted and cytospins prepared for differential cell counts, which were assessed by morphology following Diff Quick staining ([…]). BALF was centrifuged at 1200 × g and supernatant stored at -20°C for further analysis.

[2] = system: ventilatory function (penH); experiment: Ventilatory function (penH) after methacholine, whole-body plethysmography; type: in vivo, BALB/c mice
Procedure: All experiments used female BALB/c mice, 6- to 8-weeks-old. Mice were kept in individually ventilated cages and all experiments were conducted under UK Home Office guidelines. Mice were sensitized (day 0) and boosted (day 14) i.p. with 20 μg OVA (Grade V, Sigma) adsorbed to 9% potassium alum. Mice were either challenged on day 28 and 30 with 50 μg OVA or PBS by the intratracheal route or were challenged with 1% OVA or PBS by aerosol for 30 min on day 28 to day 30. […] Necropsies were performed 24 hr after the final airway challenge. […] Briefly, conscious mice were placed in individual chambers for a 10 min acclimatization period. Spontaneous breathing patterns in mice relate to changes in chamber air pressure, which are measured by a transducer attached to the chamber wall. Differences in the rates of pressure change during peak inspiration and peak expiration and the timing of expiration are used to calculate penH according to the following equation; penH = ((expiratory time/relaxation time) – 1) × (peak expiratory flow (mL/s)/peak inspiratory flow (ml/s)). PenH measurements are not used as a quantitative measurement that relates to airway size and rather reflect changes to ventilation following bronchoconstriction. Baseline measurements of penH were made following an aerosol of PBS. […]

lung chitinase activity = experiment: Chitinase activity in lung homogenates, OVA allergic inflammation model; type: in vivo, BALB/c mice
Procedure: Samples were incubated with substrate (0.022 mM in 100 mM citric acid, 200 mM sodium phosphate buffer [pH 5.2]) in a final volume of 50 μL. After a 10 min incubation at 37°C, the reaction was stopped with the addition of 500 μl sodium carbonate buffer (0.5 M sodium carbonate and 0.5 M sodium bicarbonate [pH 10.6]). Liberated 4-[…] was quantified using a microplate fluorometer (excitation 360 nm/emission 440 nm). Ki and IC50 values were determined in the presence of different concentrations of inhibitor. Experiments were performed in duplicate or triplicate. All experiments used female BALB/c mice, 6- to 8-weeks-old. Mice were kept in individually ventilated cages and all experiments were conducted under UK Home Office guidelines. Mice were sensitized (day 0) and boosted (day 14) i.p. with 20 μg OVA (Grade V, Sigma) adsorbed to 9% potassium alum. Mice were either challenged on day 28 and 30 with 50 μg OVA or PBS by the intratracheal route or were challenged with 1% OVA or PBS by aerosol for 30 min on day 28 to day 30. […] Necropsies were performed 24 hr after the final airway challenge. Protein from dissected lung was homogenized (TissueLyser, QIAGEN) in lysis buffer containing protease cocktail inhibitor (Sigma). Samples were incubated for 20 min on ice, prior to centrifugation 10,000 × g to removed cell debris. Protein amounts were quantified with Coomassie (Bradford) Reagent. […]

[3] = biological target: human chitotriosidase (hCHIT1) (Homo sapiens, UniProt Q13231); experiment: Chitinase activity assay with fluorescent 4-MU substrate, hCHIT1; type: biochemical; details: read-out: IC50 against hCHIT1
[4] = system: OVA-specific tLN cell cultures; experiment: Cytokine and chemokine secretion from draining tLN cell cultures (Luminex); type: in vivo, BALB/c mice
Procedure: All experiments used female BALB/c mice, 6- to 8-weeks-old. Mice were kept in individually ventilated cages and all experiments were conducted under UK Home Office guidelines. Mice were sensitized (day 0) and boosted (day 14) i.p. with 20 μg OVA (Grade V, Sigma) adsorbed to 9% potassium alum. Mice were either challenged on day 28 and 30 with 50 μg OVA or PBS by the intratracheal route or were challenged with 1% OVA or PBS by aerosol for 30 min on day 28 to day 30. […] Necropsies were performed 24 hr after the final airway challenge.
The draining thoracic lymph nodes (tLN) were dissected and single-cell suspensions made before being plated out at 1 × 10^6 cells/mL in 96-well plates (RPMI 1640 supplemented with L-glutamine, penicillin streptomycin, and FCS). Cells were stimulated with 500 μg/mL OVA and incubated for 72 hr at 37°C, 5% CO2. MIP-1α levels were measured in cell-free supernatants using a Luminex kit (Invitrogen) and samples were read with a Luminex 100 multiplex bead array system.

[5] = 5 mg/kg i.p., OVA-challenged mice

T1 sequence (Q91XA9 22-473): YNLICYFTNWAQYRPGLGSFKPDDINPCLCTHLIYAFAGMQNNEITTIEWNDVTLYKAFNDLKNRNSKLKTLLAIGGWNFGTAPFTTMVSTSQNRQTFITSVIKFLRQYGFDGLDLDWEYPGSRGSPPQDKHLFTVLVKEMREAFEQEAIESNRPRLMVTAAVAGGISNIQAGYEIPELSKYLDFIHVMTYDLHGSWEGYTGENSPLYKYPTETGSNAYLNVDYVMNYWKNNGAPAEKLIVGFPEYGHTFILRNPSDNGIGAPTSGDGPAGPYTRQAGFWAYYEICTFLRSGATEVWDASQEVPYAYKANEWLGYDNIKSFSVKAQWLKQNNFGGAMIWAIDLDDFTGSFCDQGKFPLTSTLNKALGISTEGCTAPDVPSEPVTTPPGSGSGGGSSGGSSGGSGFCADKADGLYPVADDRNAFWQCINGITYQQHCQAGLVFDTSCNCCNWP
human chitotriosidase (hCHIT1), sequence (Q13231 22-466): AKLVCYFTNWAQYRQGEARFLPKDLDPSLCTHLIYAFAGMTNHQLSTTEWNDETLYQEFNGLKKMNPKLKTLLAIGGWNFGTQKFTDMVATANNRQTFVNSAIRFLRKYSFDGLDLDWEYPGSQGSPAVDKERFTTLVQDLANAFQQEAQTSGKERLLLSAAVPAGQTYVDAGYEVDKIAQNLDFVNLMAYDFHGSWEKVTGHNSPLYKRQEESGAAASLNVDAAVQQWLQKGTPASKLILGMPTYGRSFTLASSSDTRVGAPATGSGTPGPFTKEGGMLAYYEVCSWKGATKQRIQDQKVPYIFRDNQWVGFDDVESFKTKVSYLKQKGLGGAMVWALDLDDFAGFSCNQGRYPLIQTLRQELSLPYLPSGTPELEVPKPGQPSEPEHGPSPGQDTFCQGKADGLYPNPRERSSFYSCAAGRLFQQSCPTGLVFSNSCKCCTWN

Cn1cnc2c1c(=O)n(CCCn1c(=O)c3[nH]cnc3n(C)c1=O)c(=O)n2C [bisdionin F]
IC50 (recombinant mAMCase): 2.21 µM and 2.2 µM | increase in neutrophil cell number in BALF vs vehicle-treated OVA-challenged mice ([1]; 5 mg/kg i.p.): 4 fold | number of eosinophils in BALF [1, 5]: reduction | number of lymphocytes in BALF [1, 5]: reduction | total cell airway infiltrates (BALF) ([1]; 5 mg/kg i.p., OVA-challenged mice, vs vehicle, p < 0.01): significantly reduced | total cell numbers (BALF) in PBS-challenged animals ([1]; 5 mg/kg i.p., PBS-challenged mice): not altered | eosinophilia of OVA-challenged mice ([1]; 1 and 5 mg/kg i.p.): reduced | increase in neutrophil cell number in BALF ([1]; 1 and 5 mg/kg i.p., OVA-challenged mice): 2- to 4 fold | reduction of eosinophil recruitment ([1]; doses that decreased penH in allergic animals): approximately 50% | penH in PBS-challenged animals ([2]; 5 mg/kg, data not shown): no effect | penH in allergic mice ([2]; 1 and 5 mg/kg i.p., highest concentration of methacholine): significantly reduced | chitinase activity in the lungs (lung chitinase activity; 5 mg/kg i.p., control PBS and OVA-challenged mice, about 24 hr after last challenge): significantly reduced | lowest dose at which any chitinase inhibition was observed (lung chitinase activity; i.p., allergic mice): 1 mg/kg | IC50 ([3]; listed as Bisdionin F): 17.1 ± 1 µM | IC50 [3]: 17 µM | MIP-1α secretion from tLN cell cultures ([4]; 5 mg/kg i.p., OVA-challenged animals, 72 hr culture): enhanced | IL-17 secretion in tLN cultures ([4]; allergic mice, data not shown): not significantly altered | KC secretion in tLN cultures ([4]; allergic mice, data not shown): not significantly altered
